The test system of this assay is CEM cells HIV-1 protection, formazan growth assay. Description: NCI AIDS Antiviral Assay. As to conditions: for pIC50: measured here: growth of uninfected CEM cells. In outline:
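Human CEM cells, uninfected and HIV-1-infected, received five drug concentrations, and growth was read by soluble formazan assay. Compounds giving at least 50% protection were retested; reproducible 100% protection defined confirmed active.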

pEC50, pIC50: −log10 of the molar value. The source made the active and inactive calls.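 How the source made its calls: active means compounds giving half or more protection of infected cells from virus-caused growth loss, again on retest; inactive means the rest.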

The term pEC50 denotes −log10 of the EC50, conventionally taken in molar units. Usually pIC50 stands for the IC50 on a negative log10 scale, so that one unit is a factor of ten.

With `CSc1nc(=O)c2nc(-c3cccs3)c(-c3cccs3)nc2n1C`, the pEC50 was under 4.00 and the negative-log IC50 (pIC50) is under 4.00.
With `CCCN1C(=O)c2cc(=O)[nH]c(O)c2C1C` (stereo unspecified), the pEC50 was under 3.93 and the pIC50 is 4.09.
For `COC(=O)Oc1nn(C(=O)OC)c(=O)c2ccccc12`, in that order: under 3.70 and under 3.70.
For `CCOC(=O)CNC(=O)c1ccccc1SC(=O)CCCC[n+]1ccccc1`, the pEC50 is under 4.70 and the pIC50 was 6.44.
Take `C[N+](C)([O-])CCC=C1c2ccccc2CCc2ccccc21`: the pEC50 was under 3.70 and the negative logarithm of the IC50 (pIC50) was 3.98.
The matching figures for `O=C(/C=C\c1cccc2ccccc12)c1cccs1`: under 5.40 and under 5.40.
On to `O[C@]12CCCC[C@H]1CCC2`, for which the result was inactive.
As for `O=C1C2c3[nH]c4ccccc4c3C3CCCC3C2C(=O)N1c1ccccc1` (stereo unspecified), the result was inactive.
Consider `O=C(Nc1nc(=S)[nH][nH]1)C(=O)C(C(=O)c1ccc2ccccc2c1)C1OC(=O)c2ccccc21` (stereo unspecified), for which the pEC50 was under 4.26 and the pIC50 was 4.59.
As for `CCOC(=O)C1(C)C2=CC=C(O2)C(C)(C)C2=CC=C(O2)C(C)(C)C2=CC=C(O2)C(C)(C)C2=CC=C1O2`, the result was inactive.
For the compound `CCc1cn(C2CC(CO)C(CO)S2)c(=O)[nH]c1=O` (stereo unspecified), the pEC50 was under 3.70 and the pIC50 is under 3.70.
In the case of `C=C(C)C1CC[C@]2(C(=O)O)CCC3(C)[C@H](CCC4[C@@]5(C)CC[C@H](OC6OC(CO)C(O)C6OC6OC(C)C(O)C(O)C6O)[C@@](C)(CO)C5CC[C@]43C)C12` (stereo partly specified), the result was inactive.
`Cn1c(=O)c2c(ncn2CC(=O)N/N=C2\SCC(=O)N2Cc2ccccc2)n(C)c1=O`: the pEC50 was under 4.13 and the pIC50 is under 4.13.
With `CCN(CC)C(=O)N[C@@H](CC(C)C)C(=O)NC`, the pEC50 was under 3.70 and the pIC50 was under 3.70.
With `COC(=O)[C@@H]1N2C(=S)N(c3ccccc3)C(=O)[C@H]2SC1(C)C`, the pEC50 was under 3.70 and the negative logarithm of the IC50 (pIC50) was under 3.70.
Turning to `N#C/C(N)=C(\C#N)NC=NCCO`, the pEC50 is under 3.70 and the pIC50 was under 3.70.
With `CC12CC(=O)NN=C1c1ccccc1C2` (stereo unspecified), the result was inactive.
On to `C=CC[C@]12CC(OC)C(OC)CC1(OC)O[C@@H](c1cc(OC)c(OC)c(OC)c1)[C@H]2C` (stereo partly specified), for which the pEC50 is under 3.70 and the pIC50 is 3.81.
Consider `CC1C/C(=C\c2ccc(OC(=O)C(C)(C)C)cc2)C(=O)/C(=C/c2ccc(OC(=O)C(C)(C)C)cc2)C1` (stereo unspecified), for which the pEC50 was under 4.30 and the negative logarithm of the IC50 (pIC50) is 4.65.
For `O=C(NC1CCCCC1)NS(=O)(=O)c1ccc2c(c1)CCC2`, in that order: under 3.70 and under 3.70.
In the case of `COc1ccc(C2Oc3cc(OC)ccc3C(=O)C2c2ccccc2)cc1` (stereo unspecified), the pEC50 is under 3.70 and the pIC50 is 4.50.
For `O=C1c2ccccc2C(=O)N1C/C=N/NS(=O)(=O)c1ccc(F)cc1`, in that order: under 3.44 and under 3.44.
The matching figures for `O=S1(=O)C2C=CCC1C(c1ccccc1)CC2` (stereo unspecified): under 3.00 and under 3.00.
Regarding `CCOC(=O)c1ccc(Nc2cnc3ccc(C(F)(F)F)cc3n2)cc1`, the pEC50 is under 3.70 and the negative logarithm of the IC50 (pIC50) is 4.97.
The matching figures for `N#CCCCCC12C3C(=O)N(c4ccccc4)C(=O)C3ON1O[C@@H]1C(=O)N(c3ccccc3)C(=O)[C@@H]12` (stereo partly specified): under 3.70 and under 3.70.
As for `CCOC(=O)C1(C(=O)OCC)COC(C)(C)OC1`, the pEC50 is under 3.70 and the pIC50 is under 3.70.
In the case of `O=c1[nH]c2ccc(CC(=S)N3CCN(c4ccccc4)CC3)cc2o1`, the pEC50 is under 3.70 and the pIC50 was under 3.70.
On to `COc1ccc(/C=C2\CCC(C)c3c2nc(N)c(C#N)c3-c2ccc(OC)c(OC)c2)cc1OC` (stereo unspecified), for which the outcome was inactive.
For the compound `CC(C)(CN1CCCCC1)C(=O)CC(SCCS(=O)(=O)O)c1ccc(Cl)c(Cl)c1` (stereo unspecified), the pEC50 is under 3.70 and the pIC50 is 5.92.
Turning to `Clc1cccc(N=C/C=C/Nc2cccc(Cl)c2)c1`, the pEC50 was under 3.70 and the pIC50 was 4.51.
In the case of `COc1ccc(C2=Nc3c(nc(SC)[nH]c3=O)NC(c3ccccc3)C2)cc1` (stereo unspecified), the outcome was inactive.
`O=S1(=O)c2ccccc2N=C(c2ccccc2Cl)CC1c1ccc(F)cc1` (stereo unspecified): the pEC50 was under 4.83 and the negative logarithm of the IC50 (pIC50) is 4.98.
The matching figures for `CCO/C=C1\N=C(C(Cl)c2ccccc2)OC1=O` (stereo unspecified): under 3.87 and under 3.87.
For `N#Cc1c(-c2ccco2)cc(-c2ccc(NCc3nc4ccccc4[nH]3)cc2)nc1N`, the pEC50 is under 4.89 and the pIC50 is under 4.89.
For `S=C1SCN(C2CCCCCCCCCCC2)CN1C1CCCCCCCCCCC1`, the result was inactive.
As to `CCOC(=O)c1ccc(C(=O)OCC)n1-c1cc2cc(c1)CSCc1cc(cc(-n3c(C(=O)OCC)ccc3C(=O)OCC)c1)CSC2`, the pEC50 is under 3.70 and the pIC50 is under 3.70.
Take `CNc1ccc(N)cc1C(=O)N1CCC[C@H]1CO`: the pEC50 was under 3.70 and the pIC50 was under 3.70.
Consider `O=C(NC1CCCCCC1)C1C(=O)N(C2CCCCCC2)C(=O)/C1=N\O` (stereo unspecified), for which the outcome was inactive.
Consider `NC(=O)C12CC3CC(CC(F)(C3)C1)C2`, for which the pEC50 was under 2.90 and the pIC50 was under 2.90.
Turning to `COc1ccccc1N=C1SCC(=O)N1Cc1ccco1`, the pEC50 was under 3.87 and the pIC50 is 4.05.
Consider `OCCCCCCCCCCCOc1ccc(C2OCC3(CO2)COC(c2ccc(OCCCCCCCCCCCO)cc2)OC3)cc1` (stereo unspecified), for which the pEC50 is under 4.30 and the pIC50 was under 4.30.
As to `O=C(O)c1ccccc1-n1nc(C(=O)O)c(N=Nc2ccc(/C=C/c3ccc(N=Nc4c(C(=O)O)nn(-c5ccccc5C(=O)O)c4O)cc3S(=O)(=O)O)c(S(=O)(=O)O)c2)c1O.[Cu+2].[Na+]`, the pEC50 is under 6.32 and the pIC50 is under 6.32.
`CC(=O)N1CC(O)(c2ccccc2)CSc2ccccc21` (stereo unspecified): the pEC50 was under 3.97 and the pIC50 is under 3.97.
In the case of `O=C(c1cc(Cl)ccc1Cl)N1CCN(C(=O)c2cc(Cl)ccc2Cl)CC1`, the pEC50 is under 3.70 and the pIC50 was under 3.70.
On to `CC(=O)NNC(=S)N/C=C(\C#N)S(=O)(=O)c1ccc(C)cc1`, for which the outcome was inactive.
Regarding `CCCNC(=S)N/N=C/c1cccc(C)n1`, the pEC50 was under 3.70 and the pIC50 was 4.96.
Turning to `CC(C)(C)COC(=O)NS(=O)(=O)Nc1ccccc1`, the pEC50 is under 3.70 and the pIC50 is under 3.70.
In the case of `O=C(O)c1ccc(CSc2ccc(Cl)cc2)cc1`, the pEC50 was under 4.45 and the pIC50 was under 4.45.
Regarding `Cc1ccc(S(=O)(=O)ON2C(=O)c3cccc4cc([N+](=O)[O-])cc(c34)C2=O)cc1`, the pEC50 was under 4.20 and the pIC50 is under 4.20.
On to `CC/C(Cl)=N\OC(=O)Nc1ccc(OC)cc1`, for which the pEC50 was under 4.70 and the pIC50 is 5.17.
Regarding `Cn1c(=O)c2c(-c3ccccc3)onc2n(C)c1=O`, the pEC50 is under 3.70 and the pIC50 was 4.96.
For the compound `CC1NC(=O)c2cc(=O)n(C)c(O)c21` (stereo unspecified), the pEC50 is under 3.68 and the pIC50 is under 3.68.
Take `O=C(c1ccccc1)C(c1ccccc1)C1(O)C(=O)Nc2ccc([N+](=O)[O-])cc21` (stereo unspecified): the pEC50 was under 4.59 and the pIC50 is under 4.59.

Values taken from PubChem BioAssay AID179 (DTP/NCI, 2004).
